Measured values as given in PubChem BioAssay AID1259407 (Chemical Carcinogenesis Research Information System (CCRIS), 2018).
Calls of active or inactive are those of the source. The rule behind the calls is not given here.

Tested on: CCRIS mutagenicity, Ames/micronucleus/aberration tests
Assay: CCRIS mutagenicity studies
[1] = Test System: AMES SALMONELLA TYPHIMURIUM, Strain/Indicator: TA98, Metabolic Activation: NONE, Method: STANDARD PLATE
[2] = Test System: AMES SALMONELLA TYPHIMURIUM, Strain/Indicator: TA98, Metabolic Activation: RAT, LIVER, S-9, AROCLOR 1254, Method: STANDARD PLATE
[3] = Test System: AMES SALMONELLA TYPHIMURIUM, Strain/Indicator: TA100, Metabolic Activation: NONE, Method: STANDARD PLATE
[4] = Test System: AMES SALMONELLA TYPHIMURIUM, Strain/Indicator: TA100, Metabolic Activation: RAT, LIVER, S-9, AROCLOR 1254, Method: STANDARD PLATE
[5] = Test System: AMES SALMONELLA TYPHIMURIUM, Strain/Indicator: TA98, Metabolic Activation: NONE, Method: PREINCUBATION

With CO[C@@]12[C@H](CO)C3=C(C(=O)C(C)=C(N)C3=O)N1C[C@@H]1N[C@@H]12 the mutagenic call (Test System: CHINESE HAMSTER V-79, Strain/Indicator: V-79/6-THIOGUANINE, Metabolic Activation: NONE, Method: FLASK ASSAY) was “active; positive”.

In the case of c1ccc2c(c1)OCCOCCOCCOCCO2, the mutagenic call [1] is reported as “inactive; negative”, the mutagenic call [2] is reported as “inactive; negative” and the mutagenic call [3] is reported as “inactive; negative”. For the same compound, the mutagenic call [4] was “inactive; negative”, the mutagenic call (Test System: AMES SALMONELLA TYPHIMURIUM, Strain/Indicator: TA1530, Metabolic Activation: NONE, Method: STANDARD PLATE) was “inactive; negative” and the mutagenic call (Test System: AMES SALMONELLA TYPHIMURIUM, Strain/Indicator: TA1530, Metabolic Activation: RAT, LIVER, S-9, AROCLOR 1254, Method: STANDARD PLATE) was “inactive; negative”. For the same compound, the mutagenic call (Test System: AMES SALMONELLA TYPHIMURIUM, Strain/Indicator: TA1537, Metabolic Activation: NONE, Method: STANDARD PLATE) was “inactive; negative” and the mutagenic call (Test System: AMES SALMONELLA TYPHIMURIUM, Strain/Indicator: TA1537, Metabolic Activation: RAT, LIVER, S-9, AROCLOR 1254, Method: STANDARD PLATE) was “inactive; negative”.

CC(C)=C[C@@H]1[C@@H](C(=O)OCc2coc(Cc3ccccc3)c2)C1(C)C was tested, and the mutagenic call [1] was “inactive; negative”, the mutagenic call [2] was “inactive; negative” and the mutagenic call [3] was “inactive; negative”. The mutagenic call [4] was “inactive; negative”, the mutagenic call (Test System: CHINESE HAMSTER V-79, Strain/Indicator: V-79/6-THIOGUANINE, Metabolic Activation: NONE, Method: STANDARD PLATE) was “inactive; negative” and the mutagenic call (Test System: CHINESE HAMSTER V-79, Strain/Indicator: V-79/6-THIOGUANINE, Metabolic Activation: RAT HEPATOCYTES, Method: STANDARD PLATE) was “inactive; negative”. The mutagenic call (Test System: CHINESE HAMSTER V-79, Strain/Indicator: V-79/OUABAIN, Metabolic Activation: NONE, Method: STANDARD PLATE) was “inactive; negative” and the mutagenic call (Test System: CHINESE HAMSTER V-79, Strain/Indicator: V-79/OUABAIN, Metabolic Activation: RAT HEPATOCYTES, Method: STANDARD PLATE) was “inactive; negative”.

For O=C1c2cccc3ccc4ccc5cccc1c5c4c23, the mutagenic call [1] was “inactive; negative” and the mutagenic call [3] was “inactive; negative”.

C=CC(C)=O was tested, and the mutagenic call (Test System: AMES SALMONELLA TYPHIMURIUM, Strain/Indicator: TA98, Metabolic Activation: HAMSTER, LIVER, S-9, AROCLOR 1254 (30%), Method: PREINCUBATION) was “inactive; negative”, the mutagenic call [5] was “inactive; negative” and the mutagenic call (Test System: AMES SALMONELLA TYPHIMURIUM, Strain/Indicator: TA98, Metabolic Activation: RAT, LIVER, S-9, AROCLOR 1254 (30%), Method: PREINCUBATION) was “inactive; negative”. The mutagenic call (Test System: AMES SALMONELLA TYPHIMURIUM, Strain/Indicator: TA100, Metabolic Activation: HAMSTER, LIVER, S-9, AROCLOR 1254 (30%), Method: PREINCUBATION) was “active; positive”, the mutagenic call (Test System: AMES SALMONELLA TYPHIMURIUM, Strain/Indicator: TA100, Metabolic Activation: RAT, LIVER, S-9, AROCLOR 1254 (30%), Method: PREINCUBATION) was “inactive; negative” and the mutagenic call (Test System: AMES SALMONELLA TYPHIMURIUM, Strain/Indicator: TA100, Metabolic Activation: RAT, LIVER, S-9, Method: PREINCUBATION) was “active; positive”. For the same compound, the mutagenic call (Test System: AMES SALMONELLA TYPHIMURIUM, Strain/Indicator: TA102, Metabolic Activation: S-9, Method: STANDARD PLATE) was “inactive; negative”, the mutagenic call (Test System: AMES SALMONELLA TYPHIMURIUM, Strain/Indicator: TA2638, Metabolic Activation: S-9, Method: STANDARD PLATE) was “active; positive” and the mutagenic call (Test System: E. COLI, Strain/Indicator: WP2 (PKM101), Metabolic Activation: S-9, Method: STANDARD PLATE) was “active; positive”. The mutagenic call (Test System: E. COLI, Strain/Indicator: WP2 UVRA (PKM101), Metabolic Activation: S-9, Method: STANDARD PLATE) was “active; positive”.

For O=C1NC(=O)C(Cl)C1=C(Cl)Cl (configuration not stated), the mutagenic call [3] was “active; positive”.

O=[N+]([O-])c1ccc(-[n+]2nc(-c3ccccc3)nn2-c2ccc(I)cc2)cc1 was tested, and the mutagenic call (Test System: AMES SALMONELLA TYPHIMURIUM, Strain/Indicator: TA97, Metabolic Activation: NONE, Method: SPOT TEST) was “inactive; negative”, the mutagenic call [5] was “inactive; negative” and the mutagenic call (Test System: AMES SALMONELLA TYPHIMURIUM, Strain/Indicator: TA98, Metabolic Activation: NONE, Method: SPOT TEST) was “inactive; negative”. For the same compound, the mutagenic call (Test System: AMES SALMONELLA TYPHIMURIUM, Strain/Indicator: TA100, Metabolic Activation: NONE, Method: PREINCUBATION) was “inactive; negative”, the mutagenic call (Test System: AMES SALMONELLA TYPHIMURIUM, Strain/Indicator: TA100, Metabolic Activation: NONE, Method: SPOT TEST) was “inactive; negative” and the mutagenic call (Test System: AMES SALMONELLA TYPHIMURIUM, Strain/Indicator: TA102, Metabolic Activation: NONE, Method: SPOT TEST) was “inactive; negative”.

For CCCCCC[C@H]1C(=O)O[C@H](C)[C@H](NC(=O)c2cccc(NC=O)c2O)C(=O)O[C@@H](C)[C@@H]1OC(=O)CC(C)C, the mutagenic call (End Point: In vitro chromosomal aberrations, Test System: Chinese hamster lung (CHL/IU) cells, Metabolic Activation: None) was “inactive; negative”, the mutagenic call (End Point: In vitro chromosomal aberrations, Test System: Chinese hamster lung (CHL/IU) cells, Metabolic Activation: Rat, Liver, S-9, Phenobarbital and 5,6-benzoflavone (16.7%)) was “active; positive (structural aberrations)” and the mutagenic call (End Point: In vitro chromosomal aberrations, Test System: Chinese hamster ovary (CHO-WBL) cells, Metabolic Activation: Rat, Liver, S-9, Phenobarbital and 5,6-benzoflavone (5%)) was “active; positive (structural changes and polyploidy)”. For the same compound, the mutagenic call (End Point: In vitro chromosomal aberrations, Test System: Chinese hamster ovary (CHO-WBL) cells, Metabolic Activation: Rat, Liver, S-9, Phenobarbital and 5,6-benzoflavone (16.7%)) was “active; positive (polyploidy)” and the mutagenic call (Test System: MOUSE LYMPHOMA, Strain/Indicator: L5178Y (TK+/TK-), Metabolic Activation: NONE, Method: SUSPENSION/PLATE) was “inactive; negative”.

With Cn1c(C(F)(F)F)cc2c(N3CCCC3)nc(N3CCCC3)nc21 the mutagenic call (Test System: UDS RAT HEPATOCYTES, Strain/Indicator: THY-INCORP, Metabolic Activation: NONE, Method: AUTORADIOGRAPHY) was “inactive; negative”.
